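Step 1: Grow cells in 96-well plates. Step 2: Expose to compound for 48 hours at 5 concentrations. Step 3: Interpolate endpoints linearly; if unreached, use highest concentration. GI50: concentration for 50% inhibition of growth. TGI: concentration producing complete growth inhibition.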
Key:
Experiment in all cases: NCI tumour cell line growth inhibition, 48 h
T-47D breast = test system: T-47D breast
SR leukemia = test system: SR leukemia
U251 CNS = test system: U251 CNS
HCC-2998 colon = test system: HCC-2998 colon
HOP-62 NSCLC = test system: HOP-62 NSCLC
SK-OV-3 ovarian = test system: SK-OV-3 ovarian
UACC-62 melanoma = test system: UACC-62 melanoma
A549 NSCLC = test system: A549 NSCLC
CCRF-CEM leukemia = test system: CCRF-CEM leukemia
SF-295 CNS = test system: SF-295 CNS
RPMI-8226 leukemia = test system: RPMI-8226 leukemia
MOLT-4 leukemia = test system: MOLT-4 leukemia
NCI/ADR-RES ovarian = test system: NCI/ADR-RES ovarian
IGROV1 ovarian = test system: IGROV1 ovarian
A498 renal = test system: A498 renal
MDA-MB-231 breast = test system: MDA-MB-231 breast
SW-620 colon = test system: SW-620 colon
NCI-H226 lung = test system: NCI-H226 lung
SNB-75 CNS = test system: SNB-75 CNS
SK-MEL-28 melanoma = test system: SK-MEL-28 melanoma
MDA-MB-435 = test system: MDA-MB-435
UACC-257 melanoma = test system: UACC-257 melanoma
HCT-15 colon = test system: HCT-15 colon
ACHN renal = test system: ACHN renal
DU-145 prostate = test system: DU-145 prostate
NCI-H23 lung = test system: NCI-H23 lung
OVCAR-8 ovarian = test system: OVCAR-8 ovarian
OVCAR-3 ovarian = test system: OVCAR-3 ovarian
OVCAR-5 ovarian = test system: OVCAR-5 ovarian
KM12 colon = test system: KM12 colon
786-0 renal = test system: 786-0 renal
COLO 205 colon = test system: COLO 205 colon
SNB-19 CNS = test system: SNB-19 CNS
SK-MEL-5 melanoma = test system: SK-MEL-5 melanoma
OVCAR-4 ovarian = test system: OVCAR-4 ovarian
RXF 393 renal = test system: RXF 393 renal
NCI-H460 lung = test system: NCI-H460 lung
CAKI-1 renal = test system: CAKI-1 renal
M14 melanoma = test system: M14 melanoma
SK-MEL-2 melanoma = test system: SK-MEL-2 melanoma
HCT-116 colon = test system: HCT-116 colon
SF-268 CNS = test system: SF-268 CNS
TK-10 renal = test system: TK-10 renal
MCF7 breast = test system: MCF7 breast
HL-60(TB) leukemia = test system: HL-60(TB) leukemia
HOP-92 NSCLC = test system: HOP-92 NSCLC
SN12C renal = test system: SN12C renal
BT-549 breast = test system: BT-549 breast
UO-31 renal = test system: UO-31 renal
HS 578T breast = test system: HS 578T breast
MALME-3M melanoma = test system: MALME-3M melanoma
PC-3 prostate = test system: PC-3 prostate
EKVX NSCLC = test system: EKVX NSCLC
K-562 leukemia = test system: K-562 leukemia
NCI-H522 lung = test system: NCI-H522 lung
HT29 colon = test system: HT29 colon
SF-539 CNS = test system: SF-539 CNS
LOX IMVI melanoma = test system: LOX IMVI melanoma

Compound: COC1=CC(c2ccc[nH]2)=N/C1=C\c1[nH]c(C)c(C(=O)CCCCC(=O)Oc2ccc3c(c2)CCC2C3CC[C@]3(C)[C@@H](O)CC[C@@H]23)c1C (stereo not given in full)
- GI50 (T-47D breast): 1.39 µM
- TGI (T-47D breast): 4.25 µM
- GI50 (SR leukemia): 3.21 µM
- TGI (SR leukemia): > 100 µM
- GI50 (U251 CNS): 7.79 µM
- TGI (U251 CNS): > 100 µM
- GI50 (HCC-2998 colon): > 100 µM
- TGI (HCC-2998 colon): > 100 µM
- GI50 (HOP-62 NSCLC): 17.3 µM
- TGI (HOP-62 NSCLC): > 100 µM
- GI50 (SK-OV-3 ovarian): > 100 µM
- TGI (SK-OV-3 ovarian): > 100 µM
- GI50 (UACC-62 melanoma): 3.58 µM
- TGI (UACC-62 melanoma): > 100 µM
- GI50 (A549 NSCLC): 6.58 µM
- TGI (A549 NSCLC): > 100 µM
- GI50 (CCRF-CEM leukemia): 0.668 µM
- TGI (CCRF-CEM leukemia): > 100 µM
- GI50 (SF-295 CNS): > 100 µM
- TGI (SF-295 CNS): > 100 µM
- GI50 (RPMI-8226 leukemia): 4.11 µM
- TGI (RPMI-8226 leukemia): > 100 µM
- GI50 (MOLT-4 leukemia): 5.02 µM
- TGI (MOLT-4 leukemia): > 100 µM
- GI50 (NCI/ADR-RES ovarian): > 100 µM
- TGI (NCI/ADR-RES ovarian): > 100 µM
- GI50 (IGROV1 ovarian): 31.1 µM
- TGI (IGROV1 ovarian): > 100 µM
- GI50 (A498 renal): > 100 µM
- TGI (A498 renal): > 100 µM
- GI50 (MDA-MB-231 breast): 2 µM
- TGI (MDA-MB-231 breast): 8.04 µM
- GI50 (SW-620 colon): 4.33 µM
- TGI (SW-620 colon): > 100 µM
- GI50 (NCI-H226 lung): 8.88 µM
- TGI (NCI-H226 lung): > 100 µM
- GI50 (SNB-75 CNS): 12.7 µM
- TGI (SNB-75 CNS): > 100 µM
- GI50 (SK-MEL-28 melanoma): > 100 µM
- TGI (SK-MEL-28 melanoma): > 100 µM
- GI50 (MDA-MB-435): 5.47 µM
- TGI (MDA-MB-435): > 100 µM
- GI50 (UACC-257 melanoma): > 100 µM
- TGI (UACC-257 melanoma): > 100 µM
- GI50 (HCT-15 colon): 3.56 µM
- TGI (HCT-15 colon): > 100 µM
- GI50 (ACHN renal): 5.14 µM
- TGI (ACHN renal): > 100 µM
- GI50 (DU-145 prostate): 9.57 µM
- TGI (DU-145 prostate): > 100 µM
- GI50 (NCI-H23 lung): 39.9 µM
- TGI (NCI-H23 lung): > 100 µM
- GI50 (OVCAR-8 ovarian): > 100 µM
- TGI (OVCAR-8 ovarian): > 100 µM
- GI50 (OVCAR-3 ovarian): > 100 µM
- TGI (OVCAR-3 ovarian): > 100 µM
- GI50 (OVCAR-5 ovarian): > 100 µM
- TGI (OVCAR-5 ovarian): > 100 µM
- GI50 (KM12 colon): 6.66 µM
- TGI (KM12 colon): > 100 µM
- GI50 (786-0 renal): 5.64 µM
- TGI (786-0 renal): > 100 µM
- GI50 (COLO 205 colon): > 100 µM
- TGI (COLO 205 colon): > 100 µM
- GI50 (SNB-19 CNS): 53.1 µM
- TGI (SNB-19 CNS): > 100 µM
- GI50 (SK-MEL-5 melanoma): 3.63 µM
- TGI (SK-MEL-5 melanoma): > 100 µM
- GI50 (OVCAR-4 ovarian): 9.44 µM
- TGI (OVCAR-4 ovarian): > 100 µM
- GI50 (RXF 393 renal): 25.8 µM
- TGI (RXF 393 renal): > 100 µM
- GI50 (NCI-H460 lung): 5.71 µM
- TGI (NCI-H460 lung): > 100 µM
- GI50 (CAKI-1 renal): 5.45 µM
- TGI (CAKI-1 renal): > 100 µM
- GI50 (M14 melanoma): 4.78 µM
- TGI (M14 melanoma): > 100 µM
- GI50 (SK-MEL-2 melanoma): 9.88 µM
- TGI (SK-MEL-2 melanoma): > 100 µM
- GI50 (HCT-116 colon): 3.1 µM
- TGI (HCT-116 colon): 13.6 µM
- GI50 (SF-268 CNS): > 100 µM
- TGI (SF-268 CNS): > 100 µM
- GI50 (TK-10 renal): 33.8 µM
- TGI (TK-10 renal): > 100 µM
- GI50 (MCF7 breast): 0.863 µM
- TGI (MCF7 breast): > 100 µM
- GI50 (HL-60(TB) leukemia): > 100 µM
- TGI (HL-60(TB) leukemia): > 100 µM
- GI50 (HOP-92 NSCLC): 3.3 µM
- TGI (HOP-92 NSCLC): 29.2 µM
- GI50 (SN12C renal): > 100 µM
- TGI (SN12C renal): > 100 µM
- GI50 (BT-549 breast): 4.39 µM
- TGI (BT-549 breast): > 100 µM
- GI50 (UO-31 renal): 5.08 µM
- TGI (UO-31 renal): > 100 µM

Compound: CCOP(=O)(OCC)/C(C#N)=C/c1cnc[nH]1
- TGI (SR leukemia): > 100 µM
- TGI (U251 CNS): > 100 µM
- TGI (HCC-2998 colon): > 100 µM
- TGI (HOP-62 NSCLC): > 100 µM
- TGI (SK-OV-3 ovarian): > 100 µM
- TGI (UACC-62 melanoma): > 100 µM
- TGI (A549 NSCLC): > 100 µM
- TGI (HS 578T breast): > 100 µM
- TGI (CCRF-CEM leukemia): > 100 µM
- TGI (SF-295 CNS): > 100 µM
- TGI (RPMI-8226 leukemia): > 100 µM
- TGI (MOLT-4 leukemia): > 100 µM
- TGI (NCI/ADR-RES ovarian): > 100 µM
- TGI (IGROV1 ovarian): > 100 µM
- TGI (A498 renal): > 100 µM
- TGI (MALME-3M melanoma): > 100 µM
- TGI (MDA-MB-231 breast): > 100 µM
- TGI (SW-620 colon): > 100 µM
- TGI (NCI-H226 lung): > 100 µM
- TGI (PC-3 prostate): > 100 µM
- TGI (SNB-75 CNS): > 100 µM
- TGI (SK-MEL-28 melanoma): > 100 µM
- TGI (MDA-MB-435): > 100 µM
- TGI (UACC-257 melanoma): > 100 µM
- TGI (EKVX NSCLC): > 100 µM
- TGI (HCT-15 colon): > 100 µM
- TGI (ACHN renal): > 100 µM
- TGI (DU-145 prostate): > 100 µM
- TGI (K-562 leukemia): > 100 µM
- TGI (NCI-H23 lung): > 100 µM
- TGI (OVCAR-8 ovarian): > 100 µM
- TGI (OVCAR-3 ovarian): > 100 µM
- TGI (OVCAR-5 ovarian): > 100 µM
- TGI (KM12 colon): > 100 µM
- TGI (786-0 renal): > 100 µM
- TGI (COLO 205 colon): > 100 µM
- TGI (SNB-19 CNS): > 100 µM
- TGI (NCI-H522 lung): > 100 µM
- TGI (SK-MEL-5 melanoma): > 100 µM
- TGI (OVCAR-4 ovarian): > 100 µM
- TGI (RXF 393 renal): > 100 µM
- TGI (NCI-H460 lung): > 100 µM
- TGI (HT29 colon): > 100 µM
- TGI (CAKI-1 renal): > 100 µM
- TGI (M14 melanoma): > 100 µM
- TGI (SK-MEL-2 melanoma): > 100 µM
- TGI (HCT-116 colon): > 100 µM
- TGI (SF-539 CNS): > 100 µM
- TGI (SF-268 CNS): > 100 µM
- TGI (TK-10 renal): > 100 µM
- TGI (MCF7 breast): > 100 µM
- TGI (HL-60(TB) leukemia): > 100 µM
- TGI (LOX IMVI melanoma): > 100 µM
- TGI (HOP-92 NSCLC): > 100 µM
- TGI (SN12C renal): > 100 µM
- TGI (BT-549 breast): > 100 µM
- TGI (UO-31 renal): > 100 µM

From PubChem BioAssay (NCI)
